Experiments:
Type in all cases: cell-based
Proteus mirabilis = assay: MIC against Gram-negative bacteria: Proteus mirabilis; conditions: for MIC / MIC (μg/mL) P. mirabilis: P. mirabilis, 10 h cultivation at 37° C.; for MIC against P. mirabilis: Proteus mirabilis
How it was run: (§1)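 The recombinant human-originated EGF domain proteins were serially diluted two-fold against bacteria at 5×10^5 CFU/mL in LB medium. After shaken incubation at 37° C, the lowest concentration with no bacterial growth was recorded as the MIC.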

Enterobacter cloacae = assay: MIC against Gram-negative bacteria: Enterobacter cloacae; conditions: for MIC / MIC (μg/mL) E. cloacae: E. cloacae, 10 h cultivation at 37° C.; for MIC against E. cloacae: Enterobacter cloacae
How it was run: as §1

Serratia marcescens = assay: MIC against Gram-negative bacteria: Serratia marcescens; conditions: for MIC / MIC (μg/mL) S. marcescens: S. marcescens, 10 h cultivation at 37° C.; for MIC against S. marcescens: Serratia marcescens
How it was run: as §1

Citrobacter diversus = assay: MIC against Gram-negative bacteria: Citrobacter diversus; conditions: for MIC / MIC (μg/mL) C. diversus: C. diversus, 10 h cultivation at 37° C.; for MIC against C. diversus: Citrobacter diversus
How it was run: as §1

Aeromonas hydrophila = assay: MIC against Gram-negative bacteria: Aeromonas hydrophila; conditions: for MIC / MIC (μg/mL) A. hydrophila: A. hydrophila, 10 h cultivation at 37° C.; for MIC against A. hydrophila: Aeromonas hydrophila
How it was run: as §1

E. coli BL21 = assay: MIC against Gram-negative bacteria: E. coli BL21; conditions: for MIC / MIC (μg/mL) E. coli BL21 / MIC against E. coli BL21: E. coli BL21; for MIC / MIC (μg/mL) E. coli BL21: 10 h cultivation at 37° C.
How it was run: as §1

Pseudomonas aeruginosa = assay: MIC against Gram-negative bacteria: Pseudomonas aeruginosa; conditions: for MIC / MIC (μg/mL) P. aeruginosa: P. aeruginosa, 10 h cultivation at 37° C.; for MIC against P. aeruginosa: Pseudomonas aeruginosa
How it was run: as §1

Klebsiella pneumonia = assay: MIC against Gram-negative bacteria: Klebsiella pneumonia; conditions: for MIC / MIC (μg/mL) K. pneumonia: K. pneumonia, 10 h cultivation at 37° C.; for MIC against K. pneumonia: Klebsiella pneumonia
How it was run: as §1

E. coli DH5α = assay: Antibacterial activity: MIC and growth curve against E. coli DH5α in 96-well plate; conditions: minimal inhibitory concentration against E. coli DH5α; 96-well plate, 5×10^5 CFU/mL, 37° C., judged after 8 h
How it was run: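 MIC taken as lowest protein level with no bacterial growth, tracked by A600 every 30 min during 37 °C, 175 rpm culture. Two-fold protein series 50-12.5 μg/mL final, triplicate wells, against 5×10^5 CFU/mL of LB-washed mid-log cells.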

Moraxella catarrhalis = assay: MIC against Gram-negative bacteria: Moraxella catarrhalis; conditions: for MIC / MIC (μg/mL) M. catarrhalis: M. catarrhalis, 10 h cultivation at 37° C.; for MIC against M. catarrhalis: Moraxella catarrhalis
How it was run: as §1

Proteus vulgaris = assay: MIC against Gram-negative bacteria: Proteus vulgaris; conditions: for MIC / MIC (μg/mL) P. vulgaris: P. vulgaris, 10 h cultivation at 37° C.; for MIC against P. vulgaris: Proteus vulgaris
How it was run: as §1

[1] = 96-well plate, 5×10^5 CFU/mL, 37° C., 10 h

PRT615 (CDCHALGSTNGQCDIRTGQCECQPGITGQHCERCEVNHFGFGPEGCKP; listed as Homo sapiens)
50 mg/L: MIC S. marcescens (Serratia marcescens; [1]) | MIC C. diversus (Citrobacter diversus; [1])
12.5 mg/L: MIC P. mirabilis (Proteus mirabilis; [1]) | MIC E. cloacae (Enterobacter cloacae; [1]) | MIC P. aeruginosa (Pseudomonas aeruginosa; [1]) | MIC (E. coli DH5α)
25 mg/L: MIC A. hydrophila (Aeromonas hydrophila; [1]) | MIC E. coli BL21 (E. coli BL21; [1]) | MIC K. pneumonia (Klebsiella pneumonia; [1]) | MIC M. catarrhalis (Moraxella catarrhalis; [1]) | MIC P. vulgaris (Proteus vulgaris; [1])

PRT948 (DINECLSNPCSSEGSLDCIQLTNDYLCVCRSAFTGRHCE; listed as Homo sapiens)
12.5 mg/L: MIC (Citrobacter diversus) | MIC (E. coli BL21) | MIC (Klebsiella pneumonia) | MIC (Proteus vulgaris)
25 mg/L: MIC (Proteus mirabilis) | MIC (Aeromonas hydrophila)
50 mg/L: MIC (Enterobacter cloacae) | MIC (Serratia marcescens) | MIC (Pseudomonas aeruginosa) | MIC (E. coli DH5α) | MIC (Moraxella catarrhalis)

PRT158 (PGESHANDLECSGKGKCTTKPSEATFSCTCEEQYVGTFCE; listed as Homo sapiens)
12.5 mg/L: MIC (E. coli DH5α)
25 µg/mL: MIC (μg/mL) A. hydrophila (Aeromonas hydrophila; 5×10^5 CFU/mL) | MIC (μg/mL) M. catarrhalis (Moraxella catarrhalis; 5×10^5 CFU/mL) | MIC (μg/mL) P. vulgaris (Proteus vulgaris; 5×10^5 CFU/mL)
12.5 µg/mL: MIC (μg/mL) S. marcescens (Serratia marcescens; 5×10^5 CFU/mL) | MIC (μg/mL) C. diversus (Citrobacter diversus; 5×10^5 CFU/mL) | MIC (μg/mL) E. coli BL21 (E. coli BL21; 5×10^5 CFU/mL) | MIC (μg/mL) K. pneumonia (Klebsiella pneumonia; 5×10^5 CFU/mL)
50 µg/mL: MIC (μg/mL) P. mirabilis (Proteus mirabilis; 5×10^5 CFU/mL) | MIC (μg/mL) E. cloacae (Enterobacter cloacae; 5×10^5 CFU/mL) | MIC (μg/mL) P. aeruginosa (Pseudomonas aeruginosa; 5×10^5 CFU/mL)

PRT930 (NFDDCASNPCIHGICMDGINRYSCVCSPGFTGQRCN; listed as Homo sapiens)
50 mg/L: MIC (Serratia marcescens) | MIC (Klebsiella pneumonia) | MIC (E. coli DH5α) | MIC (Moraxella catarrhalis)
12.5 mg/L: MIC (Enterobacter cloacae) | MIC (E. coli BL21) | MIC (Proteus vulgaris)
25 mg/L: MIC (Proteus mirabilis) | MIC (Citrobacter diversus) | MIC (Aeromonas hydrophila) | MIC (Pseudomonas aeruginosa)

PRT850 (CQCHGHVDPVKTPKICKPESGECINCLHNTTGFWCENCLEGYVHDLEGNCIK; listed as Homo sapiens)
12.5 µg/mL: MIC (μg/mL) P. mirabilis (Proteus mirabilis; 5×10^5 CFU/mL) | MIC (μg/mL) E. cloacae (Enterobacter cloacae; 5×10^5 CFU/mL) | MIC (μg/mL) C. diversus (Citrobacter diversus; 5×10^5 CFU/mL) | MIC (μg/mL) P. aeruginosa (Pseudomonas aeruginosa; 5×10^5 CFU/mL)
50 mg/L: MIC (E. coli DH5α)
50 µg/mL: MIC (μg/mL) S. marcescens (Serratia marcescens; 5×10^5 CFU/mL) | MIC (μg/mL) A. hydrophila (Aeromonas hydrophila; 5×10^5 CFU/mL) | MIC (μg/mL) K. pneumonia (Klebsiella pneumonia; 5×10^5 CFU/mL) | MIC (μg/mL) M. catarrhalis (Moraxella catarrhalis; 5×10^5 CFU/mL)
25 µg/mL: MIC (μg/mL) E. coli BL21 (E. coli BL21; 5×10^5 CFU/mL) | MIC (μg/mL) P. vulgaris (Proteus vulgaris; 5×10^5 CFU/mL)

PRT1306 (CSLLCLPKANNSRSCRCPEDVSSSVLPSGDLMCDCPQGYQLKNNTCV; listed as Homo sapiens)
12.5 mg/L: MIC against P. mirabilis (Proteus mirabilis; [1]) | MIC against E. cloacae (Enterobacter cloacae; [1]) | MIC against P. aeruginosa (Pseudomonas aeruginosa; [1])
25 mg/L: MIC against A. hydrophila (Aeromonas hydrophila; [1]) | MIC (E. coli DH5α) | MIC against M. catarrhalis (Moraxella catarrhalis; [1]) | MIC against P. vulgaris (Proteus vulgaris; [1])
50 mg/L: MIC against S. marcescens (Serratia marcescens; [1]) | MIC against C. diversus (Citrobacter diversus; [1]) | MIC against E. coli BL21 (E. coli BL21; [1]) | MIC against K. pneumonia (Klebsiella pneumonia; [1])

PRT1198 (EHDECGSGQHNCDENAICTNTVQGHSCTCKPGYVGNGTICR; listed as Homo sapiens)
50 mg/L: MIC against P. mirabilis (Proteus mirabilis; [1]) | MIC against A. hydrophila (Aeromonas hydrophila; [1]) | MIC against K. pneumonia (Klebsiella pneumonia; [1])
25 mg/L: MIC against C. diversus (Citrobacter diversus; [1]) | MIC against P. aeruginosa (Pseudomonas aeruginosa; [1]) | MIC (E. coli DH5α) | MIC against P. vulgaris (Proteus vulgaris; [1])
12.5 mg/L: MIC against E. cloacae (Enterobacter cloacae; [1]) | MIC against S. marcescens (Serratia marcescens; [1]) | MIC against E. coli BL21 (E. coli BL21; [1]) | MIC against M. catarrhalis (Moraxella catarrhalis; [1])
